The target in the assay is full-length recombinant human FYN A (Homo sapiens (Human), UniProt P06241). Kind of assay: ADP-Glo Kinase Assay of FYN kinase inhibition. It is filed as biochemical. As to conditions: primary screen, initial compounds. In a few lines: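 GST-tagged full-length FYN A (baculovirus, Sf9) at 3 pg preincubated 30 min RT with compound (10-point 3-fold series from 10 μM) in Tris pH 7.5/MgCl2 buffer. 12-mer tyrosine peptide plus 12.5 pmol ATP added, 90 min RT; ADP measured by ADP-Glo luminescence, IC50 from dose-response.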
full-length recombinant human FYN A, sequence (P06241 whole entry): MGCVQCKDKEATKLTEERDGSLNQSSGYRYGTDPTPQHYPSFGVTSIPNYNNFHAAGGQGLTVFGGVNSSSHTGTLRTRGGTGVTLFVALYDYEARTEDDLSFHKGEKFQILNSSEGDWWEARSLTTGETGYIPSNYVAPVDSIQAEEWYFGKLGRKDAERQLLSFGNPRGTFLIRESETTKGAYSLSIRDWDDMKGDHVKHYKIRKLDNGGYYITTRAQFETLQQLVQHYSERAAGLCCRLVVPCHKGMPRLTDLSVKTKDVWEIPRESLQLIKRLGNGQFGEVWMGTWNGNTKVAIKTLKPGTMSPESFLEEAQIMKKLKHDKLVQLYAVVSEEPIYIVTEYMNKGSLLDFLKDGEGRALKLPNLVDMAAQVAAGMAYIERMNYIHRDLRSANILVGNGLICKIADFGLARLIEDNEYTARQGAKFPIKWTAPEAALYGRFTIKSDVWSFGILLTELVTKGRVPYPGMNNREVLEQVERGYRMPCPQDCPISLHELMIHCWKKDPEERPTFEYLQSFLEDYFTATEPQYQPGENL
A general note: ADP-Glo turns the ADP formed in a reaction into a luminescent signal.

From patent US10688093B2, “Methods, compositions, and uses of novel Fyn kinase inhibitors” (priority 2015, dated 2020) come the findings set out here.

For the molecule `OCc1ccc(-c2cnc3ccc(-c4cccc(F)c4)nn23)cc1` [Compound 374, [4-[6-(3-fluorophenyl)imidazo[1,2-b]pyridazin-3-yl]phenyl] methanol], the concentration for half-maximal inhibition (IC50) (as a rule, the point on the concentration scale where inhibition reaches its midpoint) was found to be 2960 nM.
Take `CC(=O)c1cccc(-c2ccc3ncc(-c4cccc(CO)c4)n3n2)c1` [Compound 375, 1-[3-[3-[3-(hydroxymethyl)phenyl]imidazo [1,2-b]pyridazin-6-yl]phenyl] ethanone]: the half-inhibitory concentration (IC50) worked out at 2170 nM.
For `CC(=O)c1cccc(-c2cnc3ccc(-c4cccc(N(C)C)c4)nn23)c1` [Compound 376, 1-[3-[6-[3-(dimethylamino)phenyl]imidazo [1,2-b]pyridazin-3-yl]phenyl] ethanone] the value was 886 nM; for `CC(=O)c1cccc(-c2cnc3ccc(-c4ccc(N)nc4)nn23)c1` [Compound 377, 1-[3-[6-(6-amino-3-pyridyl)imidazo[1,2-b]pyridazin-3-yl]phenyl] ethanone], 283 nM; for `OCc1ccc(-c2ccc3ncc(-c4cccs4)n3n2)cc1` [Compound 378, [4-[3-(2-thienyl)imidazo [1,2-b]pyridazin-6-yl]phenyl] methanol], 2360 nM.
For `COc1ccc(-c2cnc3ccc(-c4cccc(NS(C)(=O)=O)c4)nn23)cc1OC` [Compound 379, N-[3-[3-(3,4-dimethoxyphenyl)imidazo[1,2-b]pyridazin-6-yl]phenyl] methane-sulfonamide] the value was 703 nM.
Next, `CC(=O)c1cccc(-c2cnc3ccc(-c4cccc(C(N)=O)c4)nn23)c1` [Compound 380, 3-[3-(3-acetylphenyl)imidazo[1,2-b]pyridazin-6-yl]benzamide]: 519 nM.
For the molecule `CS(=O)(=O)Nc1cccc(-c2ccc3ncc(-c4cccnc4)n3n2)c1` [Compound 381, N-[3-[3-(3-pyridyl)imidazo [1,2-b]pyridazin-6-yl]phenyl] methane-sulfonamide], the IC50 was 1410 nM.
Next, `Oc1cccc(-c2cnc3ccc(-c4ccncc4)nn23)c1` [Compound 382, 3-[6-(4-pyridyl)imidazo [1,2-b]pyridazin-3-yl]phenol]: 203 nM.
For `Oc1cccc(-c2cnc3ccc(-c4cccc5ncccc45)nn23)c1` [Compound 383, 3-[6-(5-quinolyl)imidazo [1,2-b]pyridazin-3-yl]phenol] the value was 14600 nM; for `CS(=O)(=O)Nc1cccc(-c2ccc3ncc(-c4cccc(CO)c4)n3n2)c1` [Compound 384], 1150 nM; for `COc1cc(-c2cnc3ccc(-c4ccccc4OC)nn23)ccc1O` [Compound 385, 2-methoxy-4-[6-(2-methoxy-phenyl)imidazo[1,2-b]pyridazin-3-yl]phenol], 959 nM.
Next, `CNC(=O)c1cccc(-c2ccc3ncc(-c4cccc(C(C)=O)c4)n3n2)c1` [Compound 386, 3-[3-(3-acetylphenyl)imidazo[1,2-b]pyridazin-6-yl]-N-methyl-benzamide]: 1720 nM; `OCc1cccc(-c2ccc3ncc(-c4cccs4)n3n2)c1` [Compound 387, [3-[3-(2-thienyl)imidazo [1,2-b]pyridazin-6-yl]phenyl] methanol]: 1680 nM; `Cn1cc(-c2ccc3ncc(-c4cccs4)n3n2)cn1` [Compound 388, 6-(1-methylpyrazol-4-yl)-3-(2-thienyl)imidazo [1,2-b]pyridazine]: 1310 nM.
For the molecule `COc1ccc(-c2cnc3ccc(-c4cccc(C(=O)NCCO)c4)nn23)cc1OC` [Compound 389, 3-[3-(3,4-dimethoxyphenyl)imidazo[1,2-a]pyridazin-6-yl]-N-(2-hydroxyethyl) benzamide], the half-maximal inhibitory concentration (IC50) stood at 367 nM.
Next, `Cn1cc(-c2ccc3ncc(-c4ccc5c(c4)OCO5)n3n2)cn1` [Compound 390, 3-(1,3-benzodioxol-5-yl)-6-(1-methylpyrazol-4-yl)imidazo[1,2-b]pyridazine]: 956 nM; `COc1ccc(-c2cnc3ccc(-c4cnn(C)c4)nn23)cc1OC` [Compound 391, 3-(3,4-dimethoxy-phenyl)-6-(1-methylpyrazol-4-yl)imidazo[1,2-b]pyridazine]: 367 nM; `Oc1cccc(-c2cnc3ccc(-c4cccc(F)c4)nn23)c1` [Compound 392, 3-[6-(3-fluorophenyl)imidazo[1,2-b]pyridazin-3-yl]phenol]: 2260 nM.
Turning to `CC(=O)c1cccc(-c2cnc3ccc(-c4cccc(N)c4)nn23)c1` [Compound 393, 1-[3-[6-(3-aminophenyl)imidazo[1,2-b]pyridazin-3-yl]phenyl] ethanone], the IC50 was found to be 1120 nM.
Next, `COc1ccccc1-c1ccc2ncc(-c3cccnc3)n2n1` [Compound 394, 6-(2-methoxy-phenyl)-3-(3-pyridyl)imidazo [1,2-b]pyridazine]: 2350 nM; `COc1ccc(-c2cnc3ccc(-c4ccncc4)nn23)cc1OC` [Compound 395, 3-(3,4-dimethoxy-phenyl)-6-(4-pyridyl)imidazo [1,2-b]pyridazine]: 404 nM.
`Oc1cccc(-c2cnc3ccc(-c4cccnc4)nn23)c1` [Compound 396, 3-[6-(3-pyridyl)imidazo [1,2-b]pyridazin-3-yl]phenol]: the IC50 was 586 nM.
For `Cn1cc(-c2ccc3ncc(-c4cccc(O)c4)n3n2)cn1` [Compound 397, 3-[6-(1-methylpyrazol-4-yl)imidazo[1,2-b]pyridazin-3-yl]phenol] the value was 388 nM; for `OCc1ccc(-c2cnc3ccc(-c4ccc(F)cc4)nn23)cc1` [Compound 398, [4-[6-(4-fluorophenyl)imidazo[1,2-3]pyridazin-3-yl]phenyl] methanol], 2940 nM.
Next, `COc1cc(-c2cnc3ccc(-c4cccc(O)c4)nn23)ccc1O` [Compound 399, 4-[6-(3-hydroxyphenyl)imidazo[1,2-b]pyridazin-3-yl]-2-methoxy-phenol]: 295 nM; `COc1ccc(-c2ccc3ncc(-c4ccncc4)n3n2)cc1OC` [Compound 400, 6-(3,4-dimethoxy-phenyl)-3-(4-pyridyl)imidazo [1,2-b]pyridazine]: 282 nM; `Fc1ccc(-c2ccc3ncc(-c4cccnc4)n3n2)cc1` [Compound 401, 6-(4-fluorophenyl)-3-(3-pyridyl)imidazo [1,2-b]pyridazine]: 2780 nM.
Next, `OCc1cccc(-c2ccc3ncc(-c4cccc(Cl)c4)n3n2)c1` [Compound 402, [3-[3-(3-chlorophenyl)imidazo[1,2-b]pyridazin-6-yl]phenyl] methanol]: 9820 nM; `Oc1cccc(-c2cnc3ccc(-c4ccc(F)cc4)nn23)c1` [Compound 403, 3-[6-(4-fluorophenyl)imidazo[1,2-b]pyridazin-3-yl]phenol]: 11900 nM; `c1ccc(-c2cnc3ccc(-c4cccs4)nn23)cc1` [Compound 404, 3-phenyl-6-(2-thienyl)imidazo [1,2-b]pyridazine]: 1970 nM.
As for `COc1ccc(-c2cnc3ccc(-c4cccnc4)nn23)cc1OC` [Compound 405, 3-(3,4-dimethoxy-phenyl)-6-(3-pyridyl)imidazo [1,2-b]pyridazine], the IC50 was found to be 549 nM.
Next, `CC(=O)Nc1cccc(-c2ccc3ncc(-c4cccc(O)c4)n3n2)c1` [Compound 406, N-[3-[3-(3-hydroxyphenyl)imidazo[1,2-b]pyridazin-6-yl]phenyl] acetamide]: 1650 nM.
